Laboratory results reported in patent US20070093539A1, “N-hydroxy-4-(3-pheyl-5-methyl-isoxazole-4-yl)-benzenesulfonate solvates” (priority 2003, published 2007).

Legend:
[1] = biological target: T1, Human recombinant COX-2 (Homo sapiens, UniProt P35354); assay: spectrophotometric TMPD assay, COX-2; format: biochemical; details: 15 min preincubation at 25° C., read-out: Human recombinant COX-2 IC50 (μM) ± S.E.M.
T1 construct: purchased Cayman Chemical, Ann Arbor, USA 60122
T1 sequence (P35354 18-604): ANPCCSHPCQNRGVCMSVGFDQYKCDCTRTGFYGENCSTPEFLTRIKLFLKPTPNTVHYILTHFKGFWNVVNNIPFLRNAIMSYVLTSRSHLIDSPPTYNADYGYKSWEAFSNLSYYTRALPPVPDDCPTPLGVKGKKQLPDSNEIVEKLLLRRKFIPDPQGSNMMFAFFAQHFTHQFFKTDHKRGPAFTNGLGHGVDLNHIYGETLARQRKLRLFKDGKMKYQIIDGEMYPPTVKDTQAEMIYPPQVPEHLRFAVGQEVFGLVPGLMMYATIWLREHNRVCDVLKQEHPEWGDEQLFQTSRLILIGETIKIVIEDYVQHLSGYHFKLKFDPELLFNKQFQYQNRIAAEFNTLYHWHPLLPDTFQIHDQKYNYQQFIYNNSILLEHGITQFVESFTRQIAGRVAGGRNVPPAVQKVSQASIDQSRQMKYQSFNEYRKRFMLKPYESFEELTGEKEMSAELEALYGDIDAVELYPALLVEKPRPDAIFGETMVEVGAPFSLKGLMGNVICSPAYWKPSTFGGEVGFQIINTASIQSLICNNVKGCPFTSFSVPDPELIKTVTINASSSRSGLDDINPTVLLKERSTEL
Procedure: The Human recombinant COX-2 and sheep COX-1 activity were determined by spectrophotometric TMPD assay (K. Gierse, S. D. Hauser, D. P. Creely, C. M. Koboldt, S. H. Rangwala, P. C. Isakson and K. Seibert: Expression and selective inhibition of the constitutive and inducible forms of human cyclo-oxygenase Biochem. J. 305: 479-484 (1995)).
The Human recombinant COX-2 and sheep COX-1 activity were measured by spectrophotometric assay based on oxidation of N,N,N′,N′,-tetramethyl-p-phenylenediamine (TMPD). During the reduction of the prostaglandine G2 (PGG2) to prostaglandine endoperoxid H2 (PGH2), the TMPD is being oxidated to a colour product, which can be measured by spectrophotometer at 610 nm.
4 μl of solution of inhibitors in different concentrations was added to the 156 μl of reaction mixture (100 mM sodium phosphate buffer, pH:6.5, 1 μM hematin, 1 mg/ml gelatine). Afterwards 20 μl solution of 50 unit human recombinant COX-2 enzym or 20 μl of 50 unit sheep COX-1 enzym (Cayman Chemical, Ann Arbor, USA, cat no.: 60122/COX-2/, cat. no.: 60100/COX-1/) was added. The incubation mixture: was preincubated for 15 minutes at 25° C. in a spectrophotometric 96-well plate reader (Labsystem iEMS Reader MF). Following this, the mixture of 20 μl 1 mM arachidonic acid and 1 mM TMPD solution were added. It was shaken for 10 second and the absorbance was measured at 610 nm.

[2] = tested on: carrageenan induced inflammatory hyperalgesia; assay: Carrageenan induced inflammatory hyperalgesia (Randall-Selitto), acute model; format: in vivo, male SPRD rats; details: Acut model, 10 mg/kg p.o.
Procedure: Edema was induced by injection of Carrageenan (CA) into plantar surface of right hind paw. Male SPRD rats (weighing 140-190 g) were used n=6-8/group). Then the mechanical pain threshold of the inflamed hind paw was determined with an analgesimeter ((Ugo Basile, type: 37215).
This assay monitors the decrease of the pain threshold, and the time depending changing of the pain by mechanical pain stimulus. Analgesics can increase the pain threshold of the inflamed hinds and this effect is in terms of percentage of reversal.
Untreated right hind paw was compressed with a progressively increasing pressure. The pressure was recorded (in grams) when the animal first vocalized or made a vigorous attempt to remove the paw. It was determined to baseline threshold of the untreated paw. (average: 80-110 g). After it the animals were treated with carrageenan. After the treatment the edema and the threshold were checked in a given times. […] (Average of inflammation induced pain threshold was 20-25 g, this means 65-80% decrease related to the baseline.)
1 hour after the CA injection (100 μl of 2% solution) the animals were treated with test compounds and valdecoxib (10-10 mg/kg p.o.). […]
The chronic phase of the inflammantion and the decreasing of the threshold were induced by higher dose of CA. Inflammation induced threshold decreasing was measured 24 hours after the CA injection (150 μl of 2% solution). ) After it the animals were treated with test compounds and valdecoxib (30-30 mg/kg p.o.). Change in the threshold was checked at 1 h, 2 h, and 3 h following drug administration. In both model used control groups were treated orally only with solvents at the time of treatments. In both protocol the effects of the test compounds were calculated in percentage reversal of mechanical hiperalgesia: [formula] • T3h: In acute model, the threshold in the control group at 3 h after the CA injection (in gram) • T24h: In chronic model, the threshold in the control group at 24 h after the CA injection (in gram) • T0h: The threshold before the CA injection (in gram) • TXh In acute model, at 3h after the CA injection • TXh=In chronic model, at 25 h, 26 h, 27 h after the CA injection

[3] = tested on: isolated rabbit heart; assay: Cardiac effects on the isolated rabbit heart (Langendorff, coronary flow); design: species or system New Zealand white rabbits; coronary flow: unit not given here; details: for coronary flow % changing: versus basic value
Procedure: New Zealand white rabbits weighing 1.5-2 kg were used. The animals were exsanguinated and after thoracotomy the hearts were excised and mounted on a Langendorff-type perfusion apparatus. The hearts were perfused via the aorta with oxigenated, thermostated (37° C.) Krebs solution. A constant perfusion pressure of 80 cmH2O was applied. The test compounds were dissolved in the perfusion solution to obtain the requested concentrations.
The basic value of coronary flow was determined. Afterwards the small amount of compounds were added to perfusion liquid and the perfusion was measured for 30 minutes at every 10 minutes. Afterwards 30 minutes perfusion was performed without compound and the measure was repeated with the medium and high amount of compounds.
The effects of same concentration of valdecoxib and compound of example 1 were investigated in 4-4 hearts (1, 3 and 10 μM). Valdecoxib had no effect in either concentration. It can clearly be shown that the coronary flow was increased dose dependently. This effect is advantageous in practice of clinical therapy, because the painful arthritic and degenerative joint and bone deformations are emerged rather in old age, when diseases of the vascular system are also frequently encountered, which can conduce to disorder of vascular bed of the heart.

**Q.** With “N-hydroxi-4-(3-phenyl-5-methyl-isoxazole-4-yl)-benzenesulfonamide monohydrate [example 1]” as the substance, how does the IC50 [1] read?
**A.** Its IC50 is 1.1 ± 0.3 µM.

**Q.** What about the “Analgesic effect in % after p.o. treatment” value ([2]; 2 hours) of the same substance?
**A.** Its value is 64.6%.

**Q.** And the “Analgesic effect in % after p.o. treatment” value ([2]; 3 hours)?
**A.** The value was 40.7%.

**Q.** And the “Analgesic effect in % after p.o. treatment” value ([2]; 4 hours)?
**A.** The value was 12.3%.

**Q.** What about the coronary flow ([3]; 1 μM, 10 minutes of treatment) of the same substance?
**A.** Its coronary flow is 40.0 ± 3.3.

**Q.** What about the “coronary flow % changing” value ([3]; 1 μM, 10 minutes) of the same substance?
**A.** Its value is 16.6%.

**Q.** What about the coronary flow ([3]; 1 μM, 20 minutes of treatment) of the same substance?
**A.** The coronary flow was 39.0 ± 3.0.

**Q.** What about the “coronary flow % changing” value ([3]; 1 μM, 20 minutes) of the same substance?
**A.** The value was 13.7%.

**Q.** And the coronary flow ([3]; 1 μM, 30 minutes of treatment)?
**A.** The coronary flow was 37.5 ± 2.4.

**Q.** What about the “coronary flow % changing” value ([3]; 1 μM, 30 minutes) of the same substance?
**A.** The value was 9.3%.

**Q.** And the coronary flow ([3]; 3 μM, 10 minutes of treatment)?
**A.** Its coronary flow is 37.3 ± 2.3.

**Q.** And the “coronary flow % changing” value ([3]; 3 μM, 10 minutes)?
**A.** The value was 24.3%.

**Q.** And the coronary flow ([3]; 3 μM, 20 minutes of treatment)?
**A.** The coronary flow was 37.5 ± 1.7.

**Q.** And the “coronary flow % changing” value ([3]; 3 μM, 20 minutes)?
**A.** The value was 25.0%.

**Q.** What about the coronary flow ([3]; 3 μM, 30 minutes of treatment) of the same substance?
**A.** The coronary flow was 38.8 ± 1.3.

**Q.** What about the “coronary flow % changing” value ([3]; 3 μM, 30 minutes) of the same substance?
**A.** The value was 26.0%.

**Q.** And the coronary flow ([3]; 10 μM, 10 minutes of treatment)?
**A.** Its coronary flow is 45.8 ± 2.5.

**Q.** What about the “coronary flow % changing” value ([3]; 10 μM, 10 minutes) of the same substance?
**A.** Its value is 63.6%.

**Q.** What about the coronary flow ([3]; 10 μM, 20 minutes of treatment) of the same substance?
**A.** Its coronary flow is 48.3 ± 4.8.

**Q.** And the “coronary flow % changing” value ([3]; 10 μM, 20 minutes)?
**A.** Its value is 72.5%.

**Q.** And the coronary flow ([3]; 10 μM, 30 minutes of treatment)?
**A.** The coronary flow was 49.0 ± 4.8.

**Q.** What about the “coronary flow % changing” value ([3]; 10 μM, 30 minutes) of the same substance?
**A.** Its value is 75.0%.

**Q.** And the “effect on coronary flow (in words)” value ([3]; 1, 3 and 10 μM, 4-4 hearts)?
**A.** Its value is “positive effect”.
